# Laboratory results reported in patent publication US20150004148A1, “METHODS AND COMPOSITIONS FOR INCREASING RNA INTERFERENCE” (DEVGEN N.V., priority 2008, published 2015).
# Assays:
# Assay type in all cases: in vivo
# [1] = system: Colorado potato beetle (Leptinotarsa decemlineata) larvae; assay: CPB sequential feeding assay (priming with dextran sulfate, then dsRNA) on artificial diet; settings: Example 11; DS/DS treatment, 50 μg dextran sulfate
# Protocol: In one CPB bioassay, target Ld105 dsRNA (SEQ ID NO:1) was tested at one quantity (1 μg) following a short exposure to dextran sulfate only. The bioassay set-up was similar to that described in Example 1, except that the larvae were first fed diet with topically applied dextran sulfate (DS; 50 μg), or water, for two full days before transferring them to fresh diet with topically applied Ld105 dsRNA, dextran sulfate or water only, for the remainder of the assay.
# [2] = system: Colorado potato beetle (Leptinotarsa decemlineata) larvae; assay: Alternative CPB bioassay using treated potato leaf discs; settings: Example 10; 50 μg dextran sulfate alone on leaf discs
# Protocol: An alternative bioassay was used using potato leaf discs rather than artificial diet as food source for CPB. Discs of approximately 0.9 cm in diameter (or 0.64 cm^2) were cut out off leaves of 4- to 6-week-old potato plants using a suitably sized cork borer. Treated leaf discs were prepared by applying 2 μl of a solution comprising 100 ng target Ld105 dsRNA (SEQ ID NO:1) and 50 μg dextran sulfate on the adaxial leaf surface. The leaf discs were allowed to dry and placed individually in 24 wells of a 48-well multiwell plate. A single second-larval stage CPB was placed into each well and the plate covered with a plastic lid. Twenty-four larvae were tested per treatment. […] After 24 hours, the larvae were transferred to fresh, untreated leaf discs and placed in the chamber for a further 24 hours. This was repeated once after which the CPB larvae were transferred on to artificial diet where they were kept until the end of the bioassay.
# [3] = system: Colorado potato beetle (Leptinotarsa decemlineata) larvae; assay: Colorado potato beetle (CPB) larvae bioassay on artificial diet, test solution applied topically to the diet
# Protocol: The bioassay was typically performed in an 48-well-plate containing 500 μl of artificial diet per well. Thirty μl of test solution consisting of 5 μl Ld105 (SEQ ID NO 1) dsRNA (starting concentration 10 ng/μl) and 25 μl of dextran sulfate (of varying concentrations in Milli-Q water) was applied topically to the diet and the diet left to dry for about two hours in the laminar flow at room temperature. One 2nd stage CPB larva was placed in each well. Per treatment, 24 insects were tested. The plates were incubated in the insect rearing chamber at 25° C. and ±50% RH, with a photoperiod of 16 hours light/8 hours dark. Mortality was scored over the course of the experiment. The Kaplan-Meier estimator was used to plot the survival curves and the survival curves were compared using the logrank χ^2 test.
# In a CPB bioassay (set-up described in Example 1), target Ld105 dsRNA (SEQ ID NO:1) was tested at one quantity (50 ng) in the presence of fucoidan (average Mw±20 kDa; Sigma cat. no. F5631) at different amounts ranging from 50 ng to 50 μg per larva.
# In a CPB bioassay (set-up described in Example 1), target Ld105 dsRNA (SEQ ID NO:1) was tested at different amounts ranging from 1 pg to 1 μg in the presence of 50 μg dextran sulfate per larva.
# In a CPB bioassay (set-up described in Example 1), target Ld105 dsRNA (SEQ ID NO:1) was tested at one quantity (50 ng) in the presence of heparin (MP Biomedicals cat. no. 194114) at different amounts ranging from 50 ng to 50 μg per larva.
# In a CPB bioassay (set-up described in Example 1), target Ld105 dsRNA (SEQ ID NO:1) was tested at one quantity (50 ng per larva) in the presence of 50 μg chondroitin sulfate (Sigma cat. no. C3788) or hyaluronic acid (Sigma cat. no. 53747).
# Preparation of the recombinant bacteria is described in the international publication WO 2007/080127 (see pages 55-56).
# In one CPB bioassay (set-up described in Example 1), different target dsRNAs (SEQ ID NO:1, 2, 3, 4; Ld105 dsRNA=SEQ ID NO:1, Ld013=SEQ ID NO: 2, Ld009=SEQ ID NO: 3 and Ld248=SEQ ID NO: 4) were tested at one quantity (100 ng) in the presence of dextran sulfate (50 μg).
# [4] = system: nematode Caenorhabditis elegans; assay: C. elegans soaking assay, counting of life stages; settings: Example 13
# Protocol: The effects of dextran sulfate on the RNAi-induced phenotypes of a non-insect species, namely, the nematode Caenorhabditis elegans, were tested in a soaking assay. Wild-type worms were chunked from a stock plate and adults were bleached to obtain a well-staged population. The assay was set up in a V-shaped 96-well plate, with each well containing 20 μl of solution comprising 50 ng/μl target rps-14 dsRNA (SEQ ID NO:6), various concentrations of dextran sulfate (0 mg/ml, 0.25 mg/ml, 0.50 mg/ml and 1 mg/ml) and 50 first-larval stage nematodes. Each treatment was performed in triplicate. The plate containing the worms was incubated at 25° C. for overnight soaking After 17 hours, the worms were transferred to 3.5 cm agar-plates seeded with OP50 E. coli and incubated at 20° C. for a further 2 days. After this growing period, the assay was assessed by counting the different life stages for all treatments.
# [5] = Example 6, heparin or dextran sulfate alone, no dsRNA
# [6] = 50 ng/μl rps-14 dsRNA, alone or plus 1 mg/ml dextran sulfate, 17 hours soaking, then 2 days growing
substance,measurement,setting,value
dextran sulfate [dextran sulfate (±8 kDa)],toxicity to larvae,[1],Very little or no toxicity
same,toxicity to larvae,[2],Very little toxicity
same,toxicity to larvae,"[3]; Example 1, dextran sulfate (±8 kDa) alone, 50 ng to 50 μg per larva, no dsRNA",Very little or no toxicity
same,toxicity to larvae,"[3]; Example 4, 50 μg dextran sulfate (±8 kDa) alone",Very little or no toxicity
same,toxicity to larvae,[3]; [5],Very little or no toxicity
same,toxicity to nematodes,[4]; dextran sulfate alone (data not shown),No toxicity
dextran sulfate [dextran sulfate (±1400 kDa)],toxicity to larvae,"[3]; Example 5, dextran sulfate (±1400 kDa) alone, 50 ng to 50 μg per larva",Very little or no toxicity
fucoidan,toxicity to larvae,"[3]; Example 2, fucoidan alone, 50 ng to 50 μg per larva",Very little or no toxicity
heparin [reference compound],toxicity to larvae,[3]; [5],Very little or no toxicity
"rps-14 dsRNA: C. elegans target rps-14 double-stranded RNA, SEQ ID NO:6",number of L3 stage larvae,[4]; [6],11%
same,number of L4 stage larvae,[4]; [6],19%
same,number of adults,[4]; [6],63%
same,number of dead larvae,[4]; [6],7%
